From article PMC7470110, “Design, synthesis, and in vitro evaluation of aza-peptide aldehydes and ketones as novel and selective protease inhibitors” (Journal of Enzyme Inhibition and Medicinal Chemistry, 2020)
Where two headings read alike, the source gives them in different places. Each block holds one compound with its values, some of them ahead of it. Peptide text beside a SMILES is read from it. * marks the point of attachment. Cbz = O=C(OCc1ccccc1)*

Tests used:
[1] = cited from earlier work
[2] = biological target: T1, β5 active site of the human 20S proteasome (Homo sapiens, UniProt P28074); experiment: Proteasome kinetic assay (β5 chymotrypsin-like active site); type: biochemical; conditions: substrate Suc-LLVY-AMC 100 µM
T1 construct: purchased Boston Biochem
Method: Human 20S proteasome, 700 KDa, was purchased from Boston Biochem (50 µg, 2 µM (1.4 mg/mL)) in 50 mM HEPES buffer (pH 7.6, 100 mM NaCl, 1 mM DTT). Assay buffer was prepared as follows: 20 mM HEPES buffer pH 7.8, 0.5 mM EDTA, 0.037% SDS. Proteasome specific substrate Suc-LLVY-AMC was purchased from Boston Biochem and used as a fluorogenic substrate; λex = 380 nm, λem = 442 nm. 18 µL of 2 µM proteasome solution was diluted with 425 µL H2O to make a 0.06 µM stock enzyme solution for kinetic assays. In a 96-well plate suitable for fluorometric assays was added 86 µL assay buffer, 2 µL inhibitor, 2 µL enzyme substrate, and 10 µL enzyme stock solution ([…] enzyme concentration in well). Fluorescence at 442 nM was monitored for 10 min. […] IC50 values were obtained from non-linear fitting of the data to a competitive inhibition model using GraphPad Prism 7.0 software. The proteasome β5 chymotrypsin-like active site activity assay was performed as previously described.

[3] = biological target: T2, human caspase-6 (Homo sapiens, UniProt P55212); experiment: Caspase-6 kinetic assay; type: biochemical; conditions: for IC50: substrate Ac-VEID-AFC 0.1 mM, 37 °C
T2 construct: gift, Prof; Guy Salvesen's laboratory
T2 sequence (P55212 24-179 limits assumed): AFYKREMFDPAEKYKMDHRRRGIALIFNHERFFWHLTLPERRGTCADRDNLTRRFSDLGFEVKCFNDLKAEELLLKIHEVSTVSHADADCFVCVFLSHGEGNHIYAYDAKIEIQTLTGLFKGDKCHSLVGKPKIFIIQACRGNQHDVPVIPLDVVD
T2 sequence (P55212 194-293 limits assumed): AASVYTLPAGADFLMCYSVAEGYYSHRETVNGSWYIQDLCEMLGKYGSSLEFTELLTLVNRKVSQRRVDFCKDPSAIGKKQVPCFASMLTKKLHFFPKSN
Method: (§1) Caspase-3 and caspase-6 were generous gifts from Prof. Guy Salvesen’s laboratory and then used at Ohio State University. Caspase activities were measured in 100 mM HEPES, 10% sucrose, 0.1% CHAPS, 10 mM DTT, pH 7.5 at 37 °C. To 5,000 µL of this buffer, 100 µL of freshly prepared 1 M DTT and 4,900 µL DI H2O were added resulting in the caspase assay buffer. Studies were performed at 37 °C.
Caspase-6 specific substrate Ac-VEID-AFC was purchased from ChemCruz and used as a fluorogenic substrate; λex = 400 nm, λem = 505 nm. To 45 µL of assay buffer, 5 µL of the 19.7 µM enzyme was added. This resulting enzyme solution was further diluted 1:5 with assay buffer resulting in a 0.32 µM solution. In a 96-well plate suitable for fluorometric assays was added 80 µL assay buffer, 5 µL inhibitor, 5 µL enzyme substrate (0.1 mM), and 10 µL enzyme stock solution (32 nM enzyme concentration in well). The enzyme activity was measured in triplicate at varying concentrations of inhibitor (0, 25, 50, 100 µM in DMSO) and substrate (0.1 mM in DMSO) by converting the slope of the plot of fluorescence intensity at 442 nm vs time for the time points between 4 and 8 min using Lambert-Beer’s law. IC50 values were obtained from non-linear fitting of the data to a competitive inhibition model using GraphPad Prism 7.0 software.

[4] = biological target: T3, human caspase-3 (Homo sapiens, UniProt P42574); experiment: Caspase-3 kinetic assay; type: biochemical; conditions: substrate Ac-DEVD-AMC 0.1 mM, 37 °C
T3 construct: gift, Prof; Guy Salvesen's laboratory
T3 sequence (P42574 29-175 limits assumed): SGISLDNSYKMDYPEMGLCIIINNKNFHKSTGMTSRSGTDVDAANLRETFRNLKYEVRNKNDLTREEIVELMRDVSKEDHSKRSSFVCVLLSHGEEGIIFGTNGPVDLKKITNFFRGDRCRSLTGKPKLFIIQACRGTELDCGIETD
T3 sequence (P42574 176-277 limits assumed): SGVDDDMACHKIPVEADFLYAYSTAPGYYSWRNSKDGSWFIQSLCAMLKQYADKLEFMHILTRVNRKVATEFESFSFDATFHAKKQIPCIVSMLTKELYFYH
Method: as §1
Caspase-3 specific substrate Ac-DEVD-AMC was purchased from Cayman Chemical Company and used as fluorogenic substrate; λex = 353 nm, λem = 442 nm. 2 µL of 33 µM caspase-3 solution was diluted with 4998 µL caspase assay buffer to make a 13.2 nM enzyme stock solution. In a 96-well plate suitable for fluorometric assays, 80 µL assay buffer, 5 µL inhibitor, 5 µL enzyme substrate (0.1 mM), and 10 µL enzyme stock solution were added. Fluorescence at 442 nM was monitored for 10 min. The enzyme activity was measured in triplicate at varying concentrations of inhibitor (0, 25, 50, 100 µM in DMSO) and substrate (0.1 mM in DMSO) by converting the slope of the plot of fluorescence intensity at 442 nm vs time for the time points between 4 and 8 min using Beer-Lambert’s law. IC50 values were obtained from non-linear fitting of the data to a competitive inhibition model using GraphPad Prism 7.0 software.

[5] = biological target: I. ricinus legumain (Ixodes ricinus, UniProt Q6PRC7); experiment: Legumain kinetic assay (I. ricinus); type: biochemical
Method: (§2) Schistosoma mansoni and Ixodes ricinus legumain zymogens were expressed in the yeast, Pichia pastoris, as described[36]^,[42]. Legumain kinetic assay details: zymogens were activated for 3 h (Ir) or overnight (Sm) at room temperature in 0.1 M Na-Ac pH 4.0; 5 mM DTT. Activities were measured in 0.1 M Na-Ac pH 5.5; 2.5 mM DTT, 0.1% PEG 6000 buffer. The substrate used was Cbz-AAN-AMC with 50 µM final concentration in the assay. Inhibitors were prepared in DMSO (1% DMSO in activity assay). Measurements were taken with an incubation period of 10 min at room temperature, and the enzyme activity was measured in triplicate. Asparaginyl Endopeptidase (AE) activity assay was performed as previously described.

[6] = biological target: S. mansoni legumain (Schistosoma mansoni, UniProt P09841); experiment: Legumain kinetic assay (S. mansoni); type: biochemical; conditions: for IC50: substrate Cbz-AAN-AMC 50 µM, pH 5.5
Method: as §2

[7] = biological target: proteasome; conditions: substrate Suc-LLVY-AMC, cited from earlier work; for Ki: read-out: previously reported Ki
[8] = biological target: calpains and various lysosomal cathepsins; set-up: method as in PMID 8087844; conditions: cited from earlier work
[9] = at the highest concentration tested (100 µM)

Chain of S. mansoni legumain (P09841 32-291): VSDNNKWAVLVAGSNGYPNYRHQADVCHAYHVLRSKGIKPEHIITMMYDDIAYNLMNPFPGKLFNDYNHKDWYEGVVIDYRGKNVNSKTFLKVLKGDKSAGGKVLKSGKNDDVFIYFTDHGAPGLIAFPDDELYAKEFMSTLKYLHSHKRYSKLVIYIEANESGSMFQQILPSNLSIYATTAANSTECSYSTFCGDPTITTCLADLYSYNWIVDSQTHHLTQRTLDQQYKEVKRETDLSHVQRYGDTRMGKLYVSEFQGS

Structure (SMILES): CC(C)C[C@H](NC(=O)[C@H](CCc1ccccc1)NC(=O)CN1CCOCC1)C(=O)N[C@@H](Cc1ccccc1)C(=O)N[C@@H](CC(C)C)C(=O)[C@@]1(C)CO1 [Carfilzomib, carfilzomib]
adverse cardiovascular effects, share of patients ([1]; treated patients): up to 30%

Structure (SMILES): CC(C)C[C@H](NC(=O)OCc1ccccc1)C(=O)N[C@@H](CC(C)C)C(=O)NN(CC(C)C)C(=O)C=O [Compound 3, Benzyl ((S)-1-(((S)-1–(2-isobutyl-2–(2-oxoacetyl)hydrazinyl)-4-methyl-1-oxopentan-2-yl)amino)-4-methyl-1-oxopentan-2-yl)carbamate]
IC50 [2]: 9.02 ± 1.82 µM

Structure (SMILES): CC(=O)C(=O)N(CC(N)=O)NC(=O)[C@H](C)NC(=O)[C@H](C)NC(=O)OCc1ccccc1 [Compound 10, Benzyl ((S)-1-(((S)-1–(2–(2-amino-2-oxoethyl)-2-(2-oxopropanoyl)hydrazinyl)-1-oxopropan-2-yl)amino)-1-oxopropan-2-yl)carbamate]
inhibition of I. ricinus legumain [5, 9]: did not show inhibition | IC50 ([5]; substrate Cbz-AAN-AMC 50 µM, pH 5.5, read-out: IC50 I. ricinus): > 100 µM | inhibition of S. mansoni legumain [6, 9]: did not show inhibition | IC50 [6]: > 100 µM

Structure (SMILES): C[C@H](NC(=O)OCc1ccccc1)C(=O)N[C@@H](C)C(=O)NN(CC(N)=O)C(=O)C(=O)Cc1ccccc1 [Compound 11, Benzyl ((S)-1-(((S)-1–(2–(2-amino-2-oxoethyl)-2-(2-oxo-3-phenylpropanoyl)hydrazinyl)-1-oxopropan-2-yl)amino)-1-oxopropan-2-yl)carbamate]
IC50 [5]: 17.8 ± 11.2 µM | IC50 [6]: 22.2 ± 4.21 µM

Structure (SMILES): CCC[C@@H](C=O)NC(=O)[C@H](CC(C)C)NC(=O)[C@H](CC(C)C)NC(=O)OCc1ccccc1 [MG115, Cbz-Leu-Leu-Nle-CHO]
Ki [7]: 0.021 µM

Structure (SMILES): CC(C)C[C@@H](C=O)NC(=O)[C@H](CC(C)C)NC(=O)[C@H](CC(C)C)NC(=O)OCc1ccccc1 [MG132, Cbz-Leu-Leu-Leu-CHO] (Cbz-Leu-Leu-Leu-aldehyde)
previously reported Ki [7]: few nanomolar | Ki [7]: 0.002 to 0.004 µM | Ki [8]: 0.005 to 0.012 µM

Structure (SMILES): CC(C)C[C@H](NC(=O)[C@H](Cc1ccccc1)NC(=O)c1cnccn1)B(O)O [bortezomib]
peripheral neuropathy, share of patients ([1]; newly diagnosed multiple myeloma patients): up to 64%

More lines, now with the values ahead:

IC50 [2]: 14.6 ± 2.39 µM
Structure (SMILES): CC(=O)C(=O)N(CC(C)C)NC(=O)[C@H](CC(C)C)NC(=O)[C@H](CC(C)C)NC(=O)OCc1ccccc1 [Compound 4, Benzyl ((S)-1-(((S)-1–(2-isobutyl-2–(2-oxopropanoyl)hydrazinyl)-4-methyl-1-oxopentan-2-yl)amino)-4-methyl-1-oxopentan-2-yl)carbamate]

IC50 [2]: 10.1 ± 4.49 µM
Structure (SMILES): CC(C)C[C@H](NC(=O)OCc1ccccc1)C(=O)N[C@@H](CC(C)C)C(=O)NN(CC(C)C)C(=O)C(=O)Cc1ccccc1 [Compound 5, Benzyl ((S)-1-(((S)-1–(2-isobutyl-2–(2-oxo-3-phenylpropanoyl)hydrazinyl)-4-methyl-1-oxopentan-2-yl)amino)-4-methyl-1-oxopentan-2-yl)carbamate]

IC50 [3]: 51.9 ± 10.6 µM | IC50 [4]: 7.74 ± 1.88 µM
Structure (SMILES): CC(=O)C(=O)N(CC(=O)O)NC(=O)[C@@H](NC(=O)[C@H](CCC(=O)O)NC(=O)[C@H](CC(=O)O)NC(=O)OCc1ccccc1)C(C)C [Compound 6, (5S,8S,11S)-8–(2-Carboxyethyl)-5-(carboxymethyl)-11-isopropyl-3,6,9,12-tetraoxo-14–(2-oxopropanoyl)-1-phenyl-2-oxa-4,7,10,13,14-pentaazahexadecan-16-oic acid]

IC50 [3]: 64.2 ± 45.4 µM | IC50 [4]: 13.4 ± 4.61 µM
Structure (SMILES): CC(C)[C@H](NC(=O)[C@H](CCC(=O)O)NC(=O)[C@H](CC(=O)O)NC(=O)OCc1ccccc1)C(=O)NN(CC(=O)O)C(=O)C(=O)Cc1ccccc1 [Compound 7, (5S,8S,11S)-8–(2-Carboxyethyl)-5-(carboxymethyl)-11-isopropyl-3,6,9,12-tetraoxo-14–(2-oxo-3-phenylpropanoyl)-1-phenyl-2-oxa-4,7,10,13,14-pentaazahexadecan-16-oic acid]

inhibits caspase-6 more effectively than caspase-3 ([3]; ratio of IC50 caspase-3 / caspase-6): 13 times | IC50 [3]: 9.08 ± 3.02 µM | IC50 [4]: 122 ± 83.3 µM
Structure (SMILES): CC[C@@H](C)[C@H](NC(=O)OCc1ccccc1)C(=O)N[C@@H](CCC(=O)O)C(=O)N[C@H](C(=O)NN(CC(=O)O)C(=O)C(C)=O)[C@H](C)O [Compound 8, (5S,8S,11S)-5-((R)-s-butyl)-8–(2-carboxyethyl)-11-((S)-1-hydroxyethyl)-3,6,9,12-tetraoxo-14–(2-oxopropanoyl)-1-phenyl-2-oxa-4,7,10,13,14-pentaazahexadecan-16-oic acid]
